In patent US20100286061A1, “PLASMIN-INHIBITORY THERAPIES” (priority 2004, published 2010):
Entries after “also recorded” stand apart in the source; their conditions may differ. Like-named read-outs stand apart in the source and are kept apart here. Blank lines part the entries; values can stand above or below the substance they belong to. No end group written: not given here.

Tests used:
[1] = tested on: plasmin-mediated pro-MMP-9 activation in HL-60 cells; assay: Gelatin zymography of HL-60 conditioned media; assay type: cell-based; conditions: for inhibition of plasmin-mediated pro-MMP-9 activation: HL-60 cells, gelatin zymography, 1 μM, 48 hours
Description: (§1) Cell culture of tumor cell lines: HT-1080 (fibrosarcoma), and LNCaP (androgen-dependent prostate cancer) cell lines were grown to 80% confluence in Dulbecco's modified Eagle medium (DMEM) supplemented with 10% FCS, glutamine ([…]), sodium bicarbonate (2.1 g/l), ascorbic acid ([…]) and penicillin-streptomycin (P/S) (100 U/ml). LNCaP cells were stimulated with di-hydro-testosterone (DHT, 10 nM). Non-adherent HL-60 (acute myeloid leukemia) cell line was grown in RPMI medium supplemented with 20% FCS, glutamine 4 mM, sodium bicarbonate (1.5 g/l) and P/S (100 U/ml). Cultures were maintained at a cell concentration between 1e5 and 1e6/ml.
Gelatin zymography: HL-60 cells were cultured in serum-free medium (Ultraculture medium). Different conditions were considered: with and w/o DX-1000 at 1 μM; with or without pro-MMP-9 activators (plasmin+pro-MMP-3). Cells were cultured at 37° C./5% CO2 for 48 hours. Aliquots of conditioned media (CM) were then collected, clarified by centrifugation, mixed with electrophoresis sample buffer without reducing agent, and applied to 10% acrylamide gels containing gelatin (1 mg/ml). Active recombinant gelatinases served as standard. Samples were resolved at 20 mA, washed in 2% Triton X-100 for 1 hour and incubated at 37° C. for 16 hours in activation buffer containing 50 mM Tris-HCl, pH 7.4, 0.2 M NaCl, 5 mM CaCl2. After staining with Coomassie brilliant blue R-250, the gelatinolytic activities were detected as clear bands against the blue background.

[2] = tested on: plasmin-activated MMP-9 activity; assay: BIOTRAK assay kit, MMP-9 activity in HL60 conditioned media; assay type: cell-based; conditions: 1 μM, HL60, two days of culture
Description: In addition to gelatin zymography, we evaluated the plasmin inhibitors using the BIOTRAK® assay kit. HL60 were seeded at 4×10^5 cells/well (24 wells plate) in a serum free medium (UltraCulture medium). The day after, different conditions were evaluated: samples with and without activators of pro-MMP9 (Plasmin and pro-MMP-3) and samples with and without DX-1000 and 4-PEG-DX-1000 (1 μM). After two days of culture, conditioned media were collected an activity of MMP-9 was assessed using the BIOTRAK® assay kit. Assay time was approximately one hour under standard conditions. At a 1 μM concentration, DX-1000 and 4-PEG DX-1000 effected an approximately 68-70% reduction in plasmin-activated MMP-9 activity.

[3] = tested on: HUVECs; assay: Tube formation assay, HUVECs on collagen type I; assay type: cell-based, human; conditions: for IC50: total tube length, 16-18 hours, read-out: IC50 tube formation, HUVEC
Description: (§2) Tube formation assay: HUVECs were cultured on gelatin-coated culture dishes in RPMI medium. The cells (passage 2) were seeded at 8e4/well of a 96-well plate on collagen type I (1.5 mg/ml, SERVA) in their culture medium (EGM-2 complete medium supplemented with 10% FCS) and allowed to spread for 1 hour. The culture medium was then discarded and the cells were covered with a new layer of collagen type I (1.5 mg/ml, new preparation). […] Mouse endothelial cells (EC) (LEII cell line) were seeded at 2e4/well of a 96-well plate on GFR-Matrigel (BD) in their culture medium (IMDM supplemented with 10% FCS) in presence of a dose range of DX-1000 and incubated at 37° C./5% CO2 for 5 hours. Endothelial tube formation was assessed with an inverted photomicroscope (Analis). Microphotographs of the center of each well at low power (40×) were taken with a NIKON camera with the aid of imaging-capture software (NIKON). Tube formation in the microphotographs was quantitatively analyzed (total tube length) with METAVUE™ software (Universal Imaging Corporation). Tube formation by untreated HUVECs in full endothelial cell growth medium was used as a control. IC50 values were determined with SIGMAPLOT™.

[4] = tested on: Mouse endothelial cells (EC) (LEII cell line); assay: Tube formation assay, mouse endothelial cells (LEII) on GFR-Matrigel; assay type: cell-based; conditions: for IC50: total tube length, 5 hours
Description: as §2

[5] = tested on: endothelial cells; assay: in vitro endothelial tubulogenesis (tube formation) assay, cell type not specified; assay type: cell-based; conditions: for inhibition of tubulogenesis / angiogenesis in vitro: qualitative
Description: as §2
DX-1000 was also tested for its activity in an in vitro endothelial tubulogenesis assay (“tube formation assay” described in Methods.). […]

[6] = tested on: SW480 cells; assay: Soft agar colony formation; assay type: cell-based, human; conditions: 0.1 to 50 μM
Description: We also evaluated DX-1000 in an assay to measure the sensitivity of human tumors to drugs before progressing to in vivo studies. SW-480 cells are grown in vitro in soft agar, reducing cell movement and allowing individual cells to develop into cell clones that are identified as single colonies. 3,000 SW480 cells were seeded into each well of six well plates. Each treatment was run in triplicate. Five 4× images were taken from each well for quantification using the […]® software.

[7] = tested on: HL-60 cells; assay: Apoptosis (caspase 3/7 activity, FACS), HL-60; assay type: cell-based; conditions: also FACS assay
Description: (§3) Apoptosis was evaluated using an assay for detecting caspase 3/7 activity using caspase 3/7 substrate. Apoptosis was also not detected using a FACS assay.

[8] = tested on: SW-480 cells; assay: Apoptosis (caspase 3/7 activity, FACS), SW-480; assay type: cell-based, human; conditions: also FACS assay
Description: as §3

[9] = Pharmacokinetics of iodinated protein in normal mice; assay type: in vivo; conditions: tail vein injection
Description: (§4) Labeling: we used […] protein and the Iodogen (Pierce) method, ˜1.7 mCi. Purification: we used D-salt polyacrylamide column and collected fractions, with total recovery ˜90%. We pooled high yield fractions for injections. Mice: we injected […] via tail vein. One time point/animal; four animals/time point. We used the following time points: no PEG at 0, 7, 15, 30, and 90 min. PEG at 0, 7, 15, 30, and 90 min, 4, 8, 16, and 24 hrs. We analyzed total plasma counts, used HPLC on Superose 12 (stability), and analyzed biodistribution. Rabbits: we injected 80 mg/animal via left ear vein. Blood was drawn from the right ear at following time points: no PEG at 0, 7, 15, 30, 90 min, 4, 8, 16, 24, 48, 72, and 96 hrs. PEG at 0, 7, 15, 30, 90 min, 4, 8, 16, 24, 48, 72, 96, 120, 144, 168, and 192 hrs. We preformed the following analyses: total plasma counts and HPLC on Superose 12 (stability) at 48, 72, 96, 120, 144, 168, and 192 hrs.

[10] = Pharmacokinetics of iodinated protein in rabbits; assay type: in vivo; conditions: rabbit, ear vein injection
Description: as §4

[11] = Allometric extrapolation of stability to humans; conditions: allometric extrapolations from mouse and rabbit
Excerpt: By allometric extrapolations, we should expect a stability of 9 days in humans.

[12] = biological target: human plasmin (Homo sapiens, UniProt P00747); assay: plasmin inhibition (Ki); assay type: biochemical
[13] = tested on: LNCaP cells; assay: Chemo-invasion through Matrigel, LNCaP cells (DHT-stimulated); assay type: cell-based
Description: as §1
(§5) Chemo-invasion: HT-1080 and LNCaP cells were seeded at 10^6/well in 24-well cluster plates and incubated overnight. They were then incubated in the presence of a dose range of DX-1000 for 24 hours. […] Chemo-invasion was assessed using Transwell cell culture chamber inserts (Becton Dickinson) with Growth Factor Reduced-[…]® (GFR-[…]®) coated filters. After trypsinization, cells were seeded in the upper part of the invasion chamber (1e4/insert). RPMI medium supplemented with 5% FCS and 1% BSA and NIH3T3 CM used as chemoattractants for HT-1080 and LNCaP cells, respectively. After 24 hours of incubation at 37° C., filters were removed from the chambers, stained, and the % of invading cells was evaluated. Each condition was performed in duplicate.

[14] = tested on: HT-1080 cells; assay: Chemo-invasion through Matrigel, HT-1080 cells; assay type: cell-based
Description: as §1, §5

[15] = tested on: HT-1080 cells; assay: Cell migration: scraping assay and Boyden chamber assay without Matrigel; assay type: cell-based; conditions: 1-10 μM in scraping assay
Description: Scraping assay: HT-1080 cells were seeded at 2e6/well in 6-well plates in complete medium. […] Cell layers were then scraped with a plastic tip.
The effect of DX-1000 on cell migration was evaluated using two different assays, the scraping assay and a Boyden chamber assay without Matrigel.

[16] = global coagulation screening tests (haemostasis in vitro)
[17] = tested on: platelet function; assay: platelet function screening test
[18] = tested on: clot lysis; assay: clot lysis
[19] = tested on: fibrinolysis; assay: Thrombelastography (TEG); conditions: 280-560 nM DX-1000
[20] = activated partial thromboplastin time (APTT)
[21] = prothrombin time (PT); conditions: concentrations>5.6 μM
[22] = Clauss fibrinogen assay; conditions: concentrations>5.6 μM
[23] = DX-1000 1-10 nM, Matrigel or collagen type I

Chain of human plasmin (P00747 581-810 limits assumed): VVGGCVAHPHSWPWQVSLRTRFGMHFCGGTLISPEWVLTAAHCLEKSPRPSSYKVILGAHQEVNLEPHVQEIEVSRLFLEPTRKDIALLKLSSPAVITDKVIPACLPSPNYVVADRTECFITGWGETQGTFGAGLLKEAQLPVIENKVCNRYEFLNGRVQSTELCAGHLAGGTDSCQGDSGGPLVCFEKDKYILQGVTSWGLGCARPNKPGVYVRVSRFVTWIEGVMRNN
Chain of human plasmin (P00747 97-580 partner limits assumed): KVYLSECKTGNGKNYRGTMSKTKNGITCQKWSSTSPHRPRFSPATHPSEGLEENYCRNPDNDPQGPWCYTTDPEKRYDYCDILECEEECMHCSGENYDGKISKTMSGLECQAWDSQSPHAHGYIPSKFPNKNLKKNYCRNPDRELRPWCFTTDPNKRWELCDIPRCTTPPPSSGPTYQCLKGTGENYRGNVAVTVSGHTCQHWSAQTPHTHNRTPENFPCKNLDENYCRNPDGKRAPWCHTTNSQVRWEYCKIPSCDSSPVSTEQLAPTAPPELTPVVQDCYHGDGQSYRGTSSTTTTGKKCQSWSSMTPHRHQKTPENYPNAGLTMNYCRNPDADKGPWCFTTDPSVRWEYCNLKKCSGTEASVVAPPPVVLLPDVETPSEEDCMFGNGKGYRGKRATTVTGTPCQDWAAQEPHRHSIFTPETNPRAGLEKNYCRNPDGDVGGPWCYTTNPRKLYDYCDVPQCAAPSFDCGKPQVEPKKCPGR

IC50 [4]: 15.8 nM | IC50 ([5]; read-out: IC50 tube formation, cell type not given): 0.98 ± 1.25 nM
Substance: 4-PEG DX-1000: exemplary modified DX-1000 molecule that includes four PEG moieties (MHSFCAFKAETGPCRARFDRWFFNIFTRQCEEFIYGGCEGNQNRFESLEECKKMCTRD; cysteine pairing not given here; also: four PEG moieties, places not given here)
inhibition of plasmin-mediated pro-MMP-9 activation [1]: 92% | reduction in plasmin-activated MMP-9 activity [2]: 68-70% | IC50 [3]: 8.3 nM | inhibition of tubulogenesis / angiogenesis in vitro [5]: also inhibited tube formation | colony formation by SW480 cells [6]: did not inhibit colony formation | induction of apoptosis in HL-60 cells [7]: do not induce apoptosis | induction of apoptosis in SW-480 cells [8]: do not induce apoptosis | half-life [9]: 13 h | half-life [10]: 59 h | expected stability in humans [11]: 9 days

Ki [12]: 0.088 nM | IC50 [4]: 16.6 nM
Substance: DX-1000: Kunitz domain that inhibits human plasmin; framework region of human LACI; SEQ ID NO:22 or 23 (MHSFCAFKAETGPCRARFDRWFFNIFTRQCEEFIYGGCEGNQNRFESLEECKKMCTRD)
concentrations effective at inhibiting invasion in vitro (LNCaP) [13]: effective at nanomolar and sub-nanomolar concentrations | in vitro invasiveness of tumor cells (LNCaP) [13]: decreased in vitro invasiveness of tumor cells; also recorded: decreases the in vitro invasiveness of tumor cells | potency in invasion assay compared with aprotinin (LNCaP) [13]: more potent inhibitor than aprotinin | inhibition of DHT-stimulated invasion of LNCaPs through Matrigel ([13]; DX-1000 1 nM): inhibited | concentrations effective at inhibiting invasion in vitro (HT-1080) [14]: effective at nanomolar and sub-nanomolar concentrations | in vitro invasiveness of tumor cells (HT-1080) [14]: decreased in vitro invasiveness of tumor cells; also recorded: decreases the in vitro invasiveness of tumor cells | potency in invasion assay compared with aprotinin (HT-1080) [14]: more potent inhibitor than aprotinin | inhibition of invasion of HT-1080 through Matrigel ([14]; DX-1000 1 nM): inhibited | inhibition of plasmin-mediated pro-MMP-9 activation [1]: 64% | MMP (gelatinase) expression and activation ([1]; qualitative): inhibited plasmin-mediated MMP activation; also recorded: down-regulates MMP expression and activation; also recorded: down-regulated efficiently the expression and activation of gelatinases | reduction in plasmin-activated MMP-9 activity [2]: 68-70% | tube formation of human endothelial cells [3, 23]: efficiently blocked tube formation | IC50 ([3]; listed as DX-1000 (unmodified)): 1.39 nM | tube formation of mouse endothelial cells [4, 23]: efficiently blocked tube formation | efficiency at inhibiting tube formation compared with aprotinin [5]: at least as efficient as aprotinin | inhibition of tubulogenesis / angiogenesis in vitro [5]: decreased in vitro angiogenesis; also recorded: potent inhibitor of tubulogenesis in vitro | two-dimensional migration of HT-1080 cells in vitro [15]: did not inhibit migration; also recorded: does not inhibit | colony formation by SW480 cells [6]: did not inhibit colony formation | induction of apoptosis in HL-60 cells [7]: do not induce apoptosis | induction of apoptosis in SW-480 cells [8]: do not induce apoptosis | effects in global coagulation screening tests / haemostasis in vitro [16]: did not significantly influence haemostasis in vitro; also recorded: did not detect any clinically significant effects; also recorded: no clinically significant effects | effects in platelet function screening test [17]: no clinically significant effects | concentration at which inhibition of clot lysis was observed [18]: > 700 nM | fibrinolysis in thrombelastography (TEG) ([19]; two subjects with upper normal values): inhibition of fibrinolysis | fibrinolysis in TEG with tPA ([19]; tPA): reduction in fibrinolysis | APTT clotting times versus normal range ([20]; 1.4-5.6 μM): remained within the normal range | effect on activated partial thromboplastin time (APTT) ([20]; higher doses (1.4-5.6 μM)): weak dose-dependent effect | effect on prothrombin time (PT) [21]: did not observe an effect | effect on Clauss fibrinogen assays [22]: did not observe an effect | half-life [9]: 0.45 h | half-life [10]: about 1 h
